In patent US8569578B1, “Generating transgenic potatoes with novel resistance to potato cyst nematodes by silencing nematode parasitism genes of CLE -1 and CLE-4s” (The United States of America, as represented by the …, priority 2009, dated 2013):
“Also recorded” adds a separate entry of the source.

What was measured:
Type in all cases: in vivo
potato roots = assay: in vitro root assay with synthetic CLE peptides on potato roots; details: 10 μM peptide in assay medium, compared with no peptide or Ag-16p
Excerpt: (§1) Mounting evidence supports that the conserved CLE motif represents the major functional domain of plant CLE proteins. Gr-CLE genes encode four different 12-aa CLE motifs (FIG. 1A). To examine the functional sufficiency of these nematode CLE motifs, we conducted in vitro root assays (Fiers et al. 2005) using synthetic dodecapeptides (GrCLE1-1-12p, GrCLE4-1-12p, GrCLE4-2-12p, and GrCLE4-3-12p) corresponding to the four CLE motifs of Gr-CLE proteins. A 16-aa peptide (Ag-16p) (Fiers et al. 2005) corresponding to the C-terminus of AGAMOUS that has no similarity with plant CLE motifs and a 12-aa CLV3 peptide (CLV3-12p) were used as negative and positive controls, respectively. In addition, several peptides, including a mutated GrCLE1-1 dodecapeptide (GrCLE1-1m-12p, with a Gly-to-Ala conversion as in clv3-1 and clv3-5 mutants), a 14-aa GrCLE1-1 peptide (GrCLE1-1-14p, with one additional N-terminal and one additional C-terminal residue compared to Gr-CLE1-1-12p), and three 13-aa peptides of GrCLE4-1-13p, GrCLE4-2-13p, and GrCLE4-3-13p (all contained an extra N-terminal lysine residue compared to the corresponding dodecapeptides), were synthesized and used in the in vitro root assays.
(§2) Peptides with a purity of >70% were synthesized (Sigma-Aldrich Corp., St. Louis, Mo., U.S.A) and dissolved in filter-sterilized 50 mM sodium phosphate buffer. Three Gr-CLE-1 related peptides were synthesized: GrCLE1-1-12p (12 aa, RVIPGGPDPLHN; SEQ ID NO: 12), GrCLE1-1m-12p (12 aa, RVIPGAPDPLHN; SEQ ID NO: 13, with a G-to-A conversion at position 6), and GrCLE1-1-14p (14 aa, KRVIPGGPDPLHNR; SEQ ID NO: 14). Six Gr-CLE-4 related peptides were synthesized: GrCLE4-1-12p (12 aa, RVAGAGPDPIHH; SEQ ID NO: 15), GrCLE4-1-13p (13 aa, KRVAGAGPDPIHH; SEQ ID NO: 16), GrCLE4-2-12p (12 aa, RAVPAGPDPKHH; SEQ ID NO: 17), GrCLE4-2-13p (13 aa, KRAVPAGPDPKHH; SEQ ID NO: 18), GrCLE4-3-12p (12 aa, RGAPAGPDP IHH; SEQ ID NO: 19), and GrCLE4-3-13p (13 aa, KRGAPAGPDPIHH; SEQ ID NO: 20). Positive and negative control peptides included CLV3-12p (12 aa, RTVPSGPDPLHH; SEQ ID NO: 21) and Ag-16p (16 aa, APNNHHYSSAGRQDQT; SEQ ID NO: 22) (Fiers et al., 2005).
(§3) For peptide treatments, seeds of wild-type Arabidopsis (Columbia-0) and potato, nonhost and host of G. rostochiensis, respectively, were surface-sterilized and plated on square plates (8-12 seeds per plate) containing the assay medium (Fiers et al. 2005, supra) with 10 μM of each peptide. Assay plates were placed vertically in a growth chamber and cultured at 23° C. for 16 h of light and 8 h of dark. The root length was measured from the base of the hypocotyl to the tip of the primary root at several time points after plating. Two independent experiments were conducted.

[1] = test system: Arabidopsis (Columbia-0) roots; assay: in vitro root assay with synthetic CLE peptides on Arabidopsis roots; details: 10 μM peptide in assay medium, compared with no peptide or Ag-16p
Excerpt: as §1, §2, §3

potato hairy roots = assay: overexpression of Gr-CLE genes in potato hairy roots; details: measured at 4, 6, 8 and 10 days after dissecting; compared with vector control
Excerpt: To examine root meristems, primary root tips were excised from peptide treated Arabidopsis seedlings or from transgenic potato hairy roots and immediately mounted in water onto a glass slide. Roots were examined under an Olympus BX-50 microscope equipped with Nomarski optics and images were captured using a QImaging Retiga EXi digital CCD camera (QImaging, Surrey, BC, Canada). The root apical meristem (RAM) regions of individual primary roots that covered the distance from the position around the quiescent center to the position where elongated root cells immediately follow cytoplasm-dense meristematic cells were measured microscopically. The collected data were analyzed using the MetaMorph imaging analysis software (Universal Imaging Corporation, Downingtown, Pa., U.S.A.)
A. rhizogenes strain 15834 was transformed with individual transgene constructs of interest and used for the generation of potato hairy roots as described previously (Wang et al. 2007. Mol. Plant Pathol. 8:423-436) with some modifications. Potato stem pieces from tissue cultures were incubated with the transformed A. rhizogenes cell suspension for 10 mins, then transferred onto the callus induction medium containing 1×MS salts (Sigma-Aldrich), 26.7 μM Glycine, 4 μM Nicotinic Acid, 2.4 μM Pyridoxine HCL (Sigma-Aldrich), 1.2 μM Thiamine HCL (Sigma-Aldrich), 0.5 μM Folic Acid, 0.2 μM d-biotin (Sigma-Aldrich), 0.01% Myo-inositol (Acros, Morris Plains, N.J., U.S.A.), 3% sucrose, 0.001% 6-BAP (Sigma-Aldrich), 0.002% NAA (Sigma-Aldrich), and 1% agar and cultivated for four days at 24° C. without light. The infected stem pieces were then cultured on the propagation medium containing 1×MS salts, 1.2 mM NaH2PO4, 0.01% Myo-inositol, 0.1% Thiamine HCl, 3% sucrose, 1% agar, 50 μg/mL of kanamycin, and 238 μg/mL of timentin (GlaxoSmithKline). Timentin was used to inhibit the growth of A. rhizogenes 15834 and kanamycin was added to select for transformed roots. Approximately 12-15 days after root emergence, 1 cm-long root tips were dissected and cultured on vertical plates containing the propagation medium with 119 μg/mL of timentin and the root growth rate was measured at different time points.

Molecule | suppression of root growth (length of main root) (potato roots) | suppression of root growth (length of main root) [1] | suppression of root growth (length of main root) (potato roots; listed as Gr-CLE4-2-12p) | suppression of root growth (length of main root) ([1]; listed as Gr-CLE4-2-12p) | length of primary roots of transgenic potato hairy root lines (potato hairy roots)
RVAGAGPDPIHH (listed as Globodera rostochiensis) [GrCLE4-1-12p, 12 aa Gr-CLE-4 related peptide] | suppressed root growth; also recorded: significantly shorter | suppressed root growth; also recorded: significantly shorter |  |  | 
KRVAGAGPDPIHH (LRVAGAGPDPIHH; listed as Globodera rostochiensis) [GrCLE4-1-13p, 13 aa peptide with extra N-terminal lysine] | did not show activities on root suppression | did not show activities on root suppression |  |  | 
KRGAPAGPDPIHH (LRGAPAGPDPIHH; listed as Globodera rostochiensis) [GrCLE4-3-13p, 13 aa peptide with extra N-terminal lysine] | did not show activities on root suppression | did not show activities on root suppression |  |  | 
RGAPAGPDP IHH (RGAPAGPDPIHH; listed as Globodera rostochiensis) [GrCLE4-3-12p, 12 aa Gr-CLE-4 related peptide] | suppressed root growth; also recorded: significantly shorter | suppressed root growth; also recorded: significantly shorter |  |  | 
KRAVPAGPDPKHH (LRAVPAGPDPLHH; listed as Globodera rostochiensis) [GrCLE4-2-13p, 13 aa peptide with extra N-terminal lysine] | did not show activities on root suppression | did not show activities on root suppression |  |  | 
RVIPGAPDPLHN (listed as Globodera rostochiensis) [GrCLE1-1m-12p, mutated GrCLE1-1 dodecapeptide with a G-to-A conversion at position 6] | significantly shorter | significantly shorter |  |  | 
KRVIPGGPDPLHNR (listed as Globodera rostochiensis) [GrCLE1-1-14p, 14 aa GrCLE1-1 peptide withone additional N-terminal and C-terminal residue] | significantly shorter | significantly shorter; also recorded: comparable level of root suppression activity as GrCLE1-1-12p |  |  | 
RAVPAGPDPKHH (RAVPAGPDPLHH; listed as Globodera rostochiensis) [GrCLE4-2-12p, 12 aa Gr-CLE-4 related peptide] | significantly shorter | significantly shorter | suppressed root growth | suppressed root growth | 
Gr-CLE-4-D: G. rostochiensis CLE gene of class Gr-CLE-4, cDNA SEQ ID NO: 6 (nucleic acid, listed as Globodera rostochiensis) DNA: ATCATAATTTCCAAAATCCCAATAAAAGCTTCCTCAATAAAGTAAATATGGCCAAGAACGCAATGCTTTGCCTGCTAATTTTGAGCGTTGTTCTCGCTCTCGCATTTGCTACGAATAAAAAGGATGATGAAGAACCGGAGAACCATTCGACCGGCATTTTTGGAAAGGTCGGACGAGTTGTGACCGTGGCACTTGCGATGTCGTCTCGTCTGGGAGGGGCTAACGCAACCCGAGGAGGTGGAGCTGTATATGGAAGAAACTTGAAATCCAATCAATTGCCAAACAACAATTGGATGGCGCCACCTCCTCCAATGGCAATGAGAAGTGCCAAAGTCTATGATTCGAAACATTCTCCTGCTGAATATCTTAAAAAATTTGCTCAAGACTTTCGCCGAAAAACCGGCACGCACTCCCAGCGGCATCACGAAGAAACAACACTGGAACAGGAGAAGCGTGGAGCGCCAGCTGGGCCCGACCCAATACATCACCAAGATACAACATTTGAACAGGAGAAGCGTGGAGCGCCAGCTGGGCCCGACCCAATACATCACCAAGATACAACACTGGAACAGGAGAAGCGTGTAGCGGGAGCTGGGCCCGACCCAATACATCACCAAGATACAAAATTTGAACAGGAGAAGCGTGGAGCGCCAGCTGGGCCCGACCCAATACATCACTGATGCTCTTATTCACAATGCTAAAATATTTTAGACTATAGATAAATTGCTAGCAACAGATAAATGCCTATTCAT |  |  |  |  | short root phenotype
